Here are results for one molecule from patent US20230382916A1, “HETEROARYL HETEROCYCLIC COMPOUNDS AND USES THEREOF” (HUTCHISON MEDIPHARMA LIMITED, priority 2020, published 2023).

Data set [1] in a line: Stability test in liver microsomes (rat). The class given is in vitro ADME. The note with it: rat liver microsomes 0.5 mg/mL, 1 μM compound. As to the method:
(§1) Both male CD-1 mouse pooled liver microsomes and male SD rat pooled liver microsomes were purchased from BioreclamationIVT Corporation, USA.
(§2) The test compound stock solution was diluted with an organic solvent (usually a mixture of acetonitrile, methanol and water with various ratios, depending on the solubility of the compound, if necessary, 1 N hydrochloric acid or 1 N sodium hydroxide would be added to facilitate solubilization) to the 0.1 mM (the final concentration of the compound in the reaction system was 1 μM) and the concentration percentage of the organic solvents in the incubation system no more than 1% (wherein the percentage of DMSO was required to be no more than 0.1%). An appropriate amount of 100 mM NADP, 500 mM G-6-P and 100 Unit/mL G-6-PDH were mixed and diluted with ultrapure water (the final system contains 1 mM NADP, 5 mM G-6-P and 1 Unit/mL G-6-PDH), pre-incubated in a 37° C. water bath for 10 minutes and then placed on ice for use as a NADPH regeneration solution. 20 mg/mL liver microsomes solution and 200 mM phosphate buffer were mixed, and diluted with ultrapure water to give a liver microsomes solution containing 2.5 mg/mL liver microsomes (the final concentration of the reaction system is 0.5 mg/mL) and 50 mM phosphate buffer. The diluted liver microsomes solution was mixed with 0.1 mM compound solution, a mixture of 100 mM EDTA, 300 mM MgCl2 solution, 200 mM phosphate buffer (the final system was 3 mM MgCl2, 1 mM EDTA and 50 mM phosphate buffer) and water in an appropriate volume was added. Finally, the NADPH regeneration solution was added, then the reaction solution was placed in a 37° C. water bath to start the reaction (the reaction time was 30 minutes), and the reaction was stopped by adding the ice-cold acetonitrile reaction stopping solution containing the internal standard. The 0-minute sample was not incubated in a 37° C. water bath, and its difference from the 30-minute sample further lies in that the ice-cold acetonitrile reaction stopping solution containing the internal standard was added first, and then the NADPH regeneration solution was added. The sample added with the reaction stopping internal standard solution was vortexed and mixed well, and then centrifuged at 4400 rpm for 10 minutes. The supernatant was taken and diluted ten times with 50% methanol for LC-MS/MS analysis.
(§3) LC-MS/MS was used to determine the concentration of the compound in the sample. The percentage of the remaining compound after 30 minutes of incubation comparing with that in the 0-minute sample was calculated using the peak area ratio of the compound to the internal standard as an indicator, to evaluate the metabolic stability of the compound.

Another data set has as its target BTK recombinant protein (Homo sapiens (Human), UniProt Q06187). Put plainly: Determination of biochemical BTK (Z'-LYTE kinase assay). The note with it: 32 μM ATP. The text has this: BTK recombinant protein: Invitrogen, Cat #PV3363;
Z′-LYTE® kinase test kit-tyrosine 1 peptide: Invitrogen, Cat #PV3190;
Z′-LYTE® biochemical assay employs a fluorescence resonance energy transfer (FRET)-based, coupled-enzyme format and is based on the differential sensitivity of phosphorylated and non-phosphorylated peptides to proteolytic cleavage. Both ends of the short peptide substrate are labeled with two fluorescent groups to form a FRET paired combination. In the primary reaction (the Kinase Reaction), the kinase transfers the γ-phosphate of ATP to a single […] residue on the short peptide substrate. In the secondary reaction (the development reaction), the non-phosphorylated short peptides were recognized and cleaved by a site-specific protease (the development reagent). Phosphorylated short peptides can resist such cleavage. Cleavage of short peptides can disrupt the donor (such as coumarin) and receptor fluorophores (fluorescein) on the short peptides, while the phosphorylated short peptides can maintain FRET. The calculation method of the ratio is as follows, and the ratio of the respective emission signals generated by the donor fluorophores emitted (after excitation at 400 nm) to the receptors is calculated. Emission signal ratio=emitted light by coumarin (445 nm)/emitted light by fluorescein (520 nm). If the FRET short peptide is phosphorylated (such as no kinase inhibitor), the emitted light ratio will remain in a lower level. If the FRET short peptide is non-phosphorylated (such as kinase inhibitor), the emitted light ratio will be in a higher level. In this way, the inhibitory effects of different compound inhibitors on BTK kinase activity would be distinguished.
The experiment was carried out according to the instructions of the Z′-LYTE® kinase test kit-tyrosine 1 peptide. Reagent preparation: 1.33× kinase buffer: 5× kinase buffer was diluted with water to 1.33× kinase buffer; an enzyme solution: the kinase was dissolved in 1.33× kinase buffer with the final working concentration being 3.32 nM; a short peptide solution: a short peptide stock solution (1 mM dissolved in DMSO) was dissolved in 1.33× kinase buffer with the final working concentration being 2 μM; Z′-LYTE Tyr01 phosphorylated short peptide solution, 0.6 μl of stock solution (1 mM dissolved in DMSO) was dissolved in 149.4 μl of 1.33× kinase buffer; an ATP solution: an ATP stock solution (10 mM aqueous solution) was dissolved in 1.33× kinase buffer with the final working concentration being 32 μM; a color-developing solution: color-developing solution B was dissolved in color-developing buffer with the final working concentration being 1× color-developing solution; 4× compound preparation: the compound was diluted in 3-fold gradient concentration to finally obtain 4% DMSO aqueous solution containing different concentrations of the compound, with the final working concentration being 3000, 1000, 333.33, 111.11, 37.04, 12.35, 4.12, 1.37 nM, 8 concentration points in total.
Specific steps of the experiment: In the experiment, there were three control groups, each with 8 replicate wells, which were C1 100% inhibition group (no ATP), C2 0% inhibition group (with ATP), and C3 100% phosphorylation group, respectively. 2.5 μl of serially diluted compound was added to each well of a 384-well plate, with double replicate wells, and 4% DMSO solution was added to wells C1, C2, and C3. After that, except for wells C3, 2.5 μl of BTK enzyme solution was added to each remaining well, which was left to stand at 4° C. for 30 minutes. After that, except for wells C3, 2.5 μl of short peptide solution was added to each well, and 5 μl of phosphorylated short peptide solution was added to each of wells C3. 2.5 μl of 1.33× kinase buffer was added to each of wells C1 and C3, and 2.5 μl of ATP solution was added to each of the remaining wells. The wells were centrifuged transiently, and the plate was shaken at 1000 rpm for 30 seconds to perform transient centrifuge. […]

Data set [2] relates to anti-IgD antibody-induced B cell activation in mice whole blood. Put plainly: In vivo efficacy of the inhibitory effect on BTK target: anti-IgD antibody-induced B cell activation in mice whole blood after oral dosing. Further details: species or system mouse. The note with it: 20 mg/kg oral single dose, 16 h. As to the method:
Objects: B cells in mice whole blood were induced and activated by the anti-IgD antibody, and the inhibitory effect of the compound of the present invention on B cell activation in vivo was studied, so as to determine the inhibitory effect of the compound of the present invention on the BTK target in vivo.
Methods: C57BL/6 mice (female, 18-20 g, purchased from Shanghai Lingchang Biotechnology Co., Ltd.) were grouped according to Table 1.
The animals of each group were administered, then were placed in CO2 for anesthesia at designated time points, blood samples were taken from […] via retro-orbital bleeding, and heparin was used for anticoagulation; 90 μL of whole blood was taken from mice of each group, and added to a 96 well culture plate, and anti-mouse IgD antibody (BIO-RAD, Cat #MCA4693) was added to each well to a final concentration of […] (respectively for each drug-treated group and anti-IgD antibody-inducted vehicle group); in addition, 90 μL of whole blood of mice in the vehicle group was taken and added to the 96-well culture plate, and PBS (phosphate buffer, GIBCO, Cat #C20012500BT) was added to each well to a final concentration of 0.01 μg/L (namely, the vehicle control group); Each group was mixed well and incubated in a 37° C./5% CO2 incubator for 4 hours. In addition, the blood of mice in the drug-treated group was centrifuged to separate plasma for blood concentration analysis.
B cell activation ratio=percentage of CD69^+CD19^+ double positive B cells/percentage of CD19^+ single positive B cells
Inhibition ratio=(percentage of B cell activation ratio in anti-IgD antibody-induced vehicle group−percentage of B cell activation ratio in drug-treated group)/(percentage of B cell activation ratio in anti-IgD antibody−induced vehicle group-percentage of B cell activation ratio in vehicle control group)×100%
All data are represented by mean±standard error. For the comparison between each drug-treated group and the anti-IgD antibody-induced vehicle group, p value was calculated by Graphpad Prism using one-way ANOVA analysis of variance and Dunnett's test, and for the comparison between each drug-treated group, p value was calculated by using unpaired t test.

Data set [3] can be described thus: Stability test in liver microsomes (mouse). Conditions: mouse liver microsomes 0.5 mg/mL, 1 μM compound. In kind it is in vitro ADME. As to the method: as §1, §2, §3

Each structure is given as a SMILES string.

Sequence of BTK recombinant protein (Q06187 whole entry): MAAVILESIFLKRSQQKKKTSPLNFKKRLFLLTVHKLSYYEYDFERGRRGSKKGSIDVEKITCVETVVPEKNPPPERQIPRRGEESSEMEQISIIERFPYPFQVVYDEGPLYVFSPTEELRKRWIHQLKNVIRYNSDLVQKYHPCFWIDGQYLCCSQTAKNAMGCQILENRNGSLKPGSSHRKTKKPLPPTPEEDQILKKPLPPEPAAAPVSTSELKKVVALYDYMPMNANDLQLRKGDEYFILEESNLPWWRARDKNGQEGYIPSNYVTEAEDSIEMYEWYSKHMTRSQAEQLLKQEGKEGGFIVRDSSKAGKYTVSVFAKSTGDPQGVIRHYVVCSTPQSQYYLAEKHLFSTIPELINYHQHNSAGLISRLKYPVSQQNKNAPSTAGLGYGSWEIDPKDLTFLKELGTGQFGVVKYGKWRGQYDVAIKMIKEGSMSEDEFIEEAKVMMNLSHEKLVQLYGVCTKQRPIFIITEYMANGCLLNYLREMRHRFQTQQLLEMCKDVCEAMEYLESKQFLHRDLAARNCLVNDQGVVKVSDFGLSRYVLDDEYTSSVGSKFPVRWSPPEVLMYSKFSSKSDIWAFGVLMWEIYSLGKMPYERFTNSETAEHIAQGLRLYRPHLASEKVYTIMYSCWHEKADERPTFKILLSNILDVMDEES

Turning to `C[C@@H]1CN(C2COC2)C[C@H](C)N1c1ccc(Nc2cc(-c3ccnc(-n4ccn5c6c(cc5c4=O)CC(C)(C)C6)c3CO)cn(C)c2=O)nc1` [Compound 2], in data set [1], the “RLM, percentage of the remaining compound after 30 minutes of incubation” value came out at 85.7%. At BTK recombinant protein, the IC50 worked out at 7 nM. Moreover, the “Inhibition ratio (%) on B cell activation” value in data set [2] and in data set [2] (listed as compound 2) was 43% each time. In data set [2] (mean ± standard error), the “B cell activation ratio (the population of activated B cells in total B cells)” value is given as 20.6 ± 5.0. For the same molecule, in data set [3], the “MLM, percentage of the remaining compound after 30 minutes of incubation” value turned out to be 92.6%.
